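At the GI50, growth is halved. Definition used: TGI = concentration required for complete inhibition of growth.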
Key:
Assay in all cases: DTP human tumour cell line panel, 384-well format; in the data active means GI50 below about 0.43 µM; inactive means the rest
[1] = tested on: PC-3 prostate
[2] = tested on: A498 renal
[3] = tested on: HS 578T breast
[4] = tested on: HCT-116 colon
[5] = tested on: HOP-62 NSCLC
[6] = tested on: OVCAR-4 ovarian
[7] = tested on: U251 glioblastoma
[8] = tested on: DU-145 prostate
[9] = tested on: SK-MEL-5 melanoma
[10] = tested on: HCT-15 colon
[11] = tested on: T-47D breast
[12] = tested on: CAKI-1 renal
[13] = tested on: OVCAR-5 ovarian
[14] = tested on: 786-0 renal
[15] = tested on: HL-60(TB) leukemia
[16] = tested on: BT-549 breast
[17] = tested on: NCI-H23 lung
[18] = tested on: MCF7 breast
[19] = tested on: SF-539 CNS
[20] = tested on: SR leukemia
[21] = tested on: SK-MEL-28 melanoma
[22] = tested on: MOLT-4 leukemia
[23] = tested on: RXF 393 renal
[24] = tested on: KM12 colon
[25] = tested on: EKVX NSCLC
[26] = tested on: NCI-H522 lung
[27] = tested on: SN12C renal
[28] = tested on: SW-620 colon
[29] = tested on: UACC-257 melanoma
[30] = tested on: IGROV1 ovarian
[31] = tested on: SNB-19 CNS
[32] = tested on: HCC-2998 colon
[33] = tested on: OVCAR-8 ovarian
[34] = tested on: MDA-MB-435 melanoma
[35] = tested on: SF-268 CNS
[36] = tested on: NCI-H322M lung
[37] = tested on: MALME-3M melanoma
[38] = tested on: NCI-H460 NSCLC
[39] = tested on: TK-10 renal
[40] = tested on: NCI/ADR-RES ovarian
[41] = tested on: SNB-75 CNS
[42] = tested on: HOP-92 NSCLC
[43] = tested on: MDA-MB-231 breast
[44] = tested on: SF-295 CNS
[45] = tested on: RPMI-8226 leukemia
[46] = tested on: MDA-MB-468 breast
[47] = tested on: OVCAR-3 ovarian
[48] = tested on: ACHN renal
[49] = tested on: UACC-62 melanoma
[50] = tested on: COLO 205 colon
[51] = tested on: A549 NSCLC
[52] = tested on: UO-31 renal
[53] = tested on: NCI-H226 lung
[54] = tested on: LOX IMVI melanoma
[55] = tested on: SK-OV-3 ovarian
[56] = tested on: M14 melanoma

C#CCC(Cc1cnc2nc(N)nc(N)c2n1)c1ccc(C(=O)N[C@@H](CCC(=O)O)C(=O)O)cc1 (some centres not stated)
> 100000 nM: TGI [4] | TGI [8] | TGI [10] | TGI [18] | TGI [24] | TGI [32] | TGI [38]
2410 nM: TGI [43]
inactive: GI50 [43] 905 nM
< 10 nM: TGI [1] | TGI [2] | TGI [3] | TGI [5] | TGI [6] | TGI [7] | TGI [9] | TGI [11] | TGI [12] | TGI [13] | TGI [14] | TGI [15] | TGI [16] | TGI [17] | TGI [19] | TGI [20] | TGI [21] | TGI [22] | TGI [23] | TGI [25] | TGI [26] | TGI [27] | TGI [28] | TGI [29] | TGI [30] | TGI [31] | TGI [33] | TGI [34] | TGI [35] | TGI [36] | TGI [37] | TGI [39] | TGI [40] | TGI [41] | TGI [42] | TGI [44] | TGI [45] | TGI [46] | TGI [47] | TGI [48] | TGI [49] | TGI [50] | TGI [51] | TGI [52] | TGI [53] | TGI [54] | TGI [55] | TGI [56]
active: GI50 [1] < 10 nM | GI50 [2] < 10 nM | GI50 [3] < 10 nM | GI50 [4] < 10 nM | GI50 [5] < 10 nM | GI50 [6] < 10 nM | GI50 [7] < 10 nM | GI50 [8] < 10 nM | GI50 [9] < 10 nM | GI50 [10] < 10 nM | GI50 [11] < 10 nM | GI50 [12] < 10 nM | GI50 [13] < 10 nM | GI50 [14] < 10 nM | GI50 [15] < 10 nM | GI50 [16] < 10 nM | GI50 [17] < 10 nM | GI50 [18] < 10 nM | GI50 [19] < 10 nM | GI50 [20] < 10 nM | GI50 [21] < 10 nM | GI50 [22] < 10 nM | GI50 [23] < 10 nM | GI50 [24] < 10 nM | GI50 [25] < 10 nM | GI50 [26] < 10 nM | GI50 [27] < 10 nM | GI50 [28] < 10 nM | GI50 [29] < 10 nM | GI50 [30] < 10 nM | GI50 [31] < 10 nM | GI50 [32] < 10 nM | GI50 [33] < 10 nM | GI50 [34] < 10 nM | GI50 [35] < 10 nM | GI50 [36] < 10 nM | GI50 [37] < 10 nM | GI50 [38] < 10 nM | GI50 [39] < 10 nM | GI50 [40] < 10 nM | GI50 [41] < 10 nM | GI50 [42] < 10 nM | GI50 [44] < 10 nM | GI50 [45] < 10 nM | GI50 [46] < 10 nM | GI50 [47] < 10 nM | GI50 [48] < 10 nM | GI50 [49] < 10 nM | GI50 [50] < 10 nM | GI50 [51] < 10 nM | GI50 [52] < 10 nM | GI50 [53] < 10 nM | GI50 [54] < 10 nM | GI50 [55] < 10 nM | GI50 [56] < 10 nM

— PubChem BioAssay (NCI)
